# Measurements taken from patent publication US9328361B2, “Coryneform bacterium transformant and process for producing phenol using the same” (GREEN PHENOL DEVELOPMENT CO., LTD., priority 2010, dated 2016).
# Where two headings read alike, the source gives them in different places.
# Legend:
# [1] = tested on: Corynebacterium glutamicum R; conditions: reducing conditions (ORP −450 mV), 8% glucose, 33° C.
# Description: Corynebacterium glutamicum R was applied to A agar medium and was left stand in the dark at 33° C. for 20 hours.
# An inoculation loop of the Corynebacterium glutamicum R grown on a plate as above was inoculated into a test tube containing 10 mL of A liquid medium and was aerobically cultured with shaking at 33° C. for 15 hours.
# The Corynebacterium glutamicum R grown in the above conditions was inoculated into a 2 L-conical flask containing 500 mL of A liquid medium and was aerobically cultured with shaking at 33° C. for 15 hours.
# The bacterial cells cultured and proliferated as above were collected by centrifugation (5,000×g at 4° C. for 15 minutes). The obtained bacterial cells were suspended in BT (-urea) liquid medium (0.7% ammonium sulfate, 0.05% potassium dihydrogen phosphate, 0.05% dipotassium hydrogen phosphate, 0.05% magnesium sulfate heptahydrate, 0.0006% iron sulfate heptahydrate, 0.00042% manganese sulfate hydrate, 0.00002% biotin and 0.00002% thiamine hydrochloride) so that the concentration of the bacterial cell was 10% (w/v). […] During the reaction, 2.5 N aqueous ammonia was added with the use of a pH controller (Type: DT-1023 made by Able) to avoid the pH of the reaction mixture falling below 7.0.
# [2] = tested on: Corynebacterium glutamicum R; conditions: aerobic culture, A liquid medium, 33° C.
# Description: A growth inhibition test in aerobic culture was performed to examine the influence of phenol on Corynebacterium glutamicum, Escherichia coli, and Pseudomonas putida. Pseudomonas putida S12, which was used for the test, is reported to be a solvent-resistant strain. In the report, disclosed is an unparalleled technology using the strain as a host in phenol production. […]
# The Corynebacterium glutamicum R grown in the above conditions was inoculated into 100 mL of A liquid media in such a way that the initial bacterial cell concentration would be OD610=0.05, phenol was added at the same time in such a way that the final concentration would be 0, 0.16, 0.2, 0.24, or […], and aerobic culture was performed with shaking at 33° C. The growth of bacterial cells was determined by absorbance measurement at OD610.
# Pseudomonas putida F1 and S12 grown in the above conditions were each inoculated into 100 mL of LB (+glucose) liquid medium in such a way that the initial bacterial cell concentration would be OD610=0.05, phenol was added at the same time in such a way that the final concentration would be 0, 0.10, or […], and aerobic culture was performed with shaking at 30° C. The growth of bacterial cells was determined by absorbance measurement at OD610. […]
# Escherichia coli JM109 = conditions: aerobic culture, LB liquid medium, 37° C.
# Description: (§1) A growth inhibition test in aerobic culture was performed to examine the influence of phenol on Corynebacterium glutamicum, Escherichia coli, and Pseudomonas putida. Pseudomonas putida S12, which was used for the test, is reported to be a solvent-resistant strain. In the report, disclosed is an unparalleled technology using the strain as a host in phenol production.
# Escherichia coli JM109 was applied to LB agar medium (1% polypeptone, 0.5% yeast extract, 0.5% NaCl and 1.5% agar) and was left stand in the dark at 37° C. for 15 hours.
# The growth of bacterial cells was determined by absorbance measurement at OD610.
# (§2) Pseudomonas putida F1 and S12 grown in the above conditions were each inoculated into 100 mL of LB (+glucose) liquid medium in such a way that the initial bacterial cell concentration would be OD610=0.05, phenol was added at the same time in such a way that the final concentration would be 0, 0.10, or […], and aerobic culture was performed with shaking at 30° C. The growth of bacterial cells was determined by absorbance measurement at OD610. […] The vertical axis of FIG. 1 indicates OD610.
# Pseudomonas putida S12 = conditions: aerobic culture, LB (+glucose) liquid medium, 30° C.
# Description: as §1
# (§3) Pseudomonas putida F1 and S12 were applied to LB agar medium (1% polypeptone, 0.5% yeast extract, 0.5% NaCl and 1.5% agar) and were left stand in the dark at 30° C. for 15 hours.
# (§4) An inoculation loop of each of Pseudomonas putida F1 and S12 was inoculated into a test tube containing 10 mL of LB (+glucose) liquid medium (1% polypeptone, 0.5% yeast extract, 0.5% NaCl and 0.4% glucose), and aerobic culture was performed with shaking at 30° C. for 13 hours.
# as §2
# Pseudomonas putida F1 = conditions: aerobic culture, LB (+glucose) liquid medium, 30° C.
# Description: as §1, §3, §4, §2
smiles,measurement,setting,value
Oc1ccccc1 [phenol],influence on saccharide consumption,[1]; 0.24% phenol,no influence of phenol was observed
same,saccharide consumption,[1]; 0.38% phenol,saccharide consumption was observed
same,saccharide consumption,[1]; 0.46% phenol,slightly observed
same,proliferation of Corynebacterium glutamicum,[2]; 0.16% phenol,hardly affected
same,proliferation of Corynebacterium glutamicum,[2]; 0.20% phenol,favorable growth
same,proliferation of Escherichia coli,Escherichia coli JM109; 0.16% phenol,significantly affected
same,proliferation of Escherichia coli,Escherichia coli JM109; 0.20% phenol,completely inhibited
same,proliferation of Pseudomonas putida S12,Pseudomonas putida S12; 0.10% phenol,significantly affected
same,proliferation of Pseudomonas putida S12,Pseudomonas putida S12; 0.20% phenol,completely inhibited
same,proliferation of Pseudomonas putida F1,Pseudomonas putida F1; 0.10% phenol,significantly affected
same,proliferation of Pseudomonas putida F1,Pseudomonas putida F1; 0.20% phenol,completely inhibited
